Measurements as given in patent publication US11427553B2, “Dihydrooxadiazinones” (Bayer Aktiengesellschaft, priority 2017, dated 2022).
Like-named read-outs stand apart in the source and are kept apart here.

Tests used:
SK-MEL-3 cells = assay: Assay 1 cell proliferation measurement (CTG, 72 h), SK-MEL-3; format: cell-based, human; conditions: Assay 1, 72 h, Cell Titer Glo, read-out: SK-MEL-3 IC50 [nM] (melanoma)
Outline: (§1)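 Cells were plated, grown overnight at 37 °C, then treated 72 h with a 10-step 2.5-fold dilution series from 100 nM maximum final (0.3% DMSO vehicle). Viability was read by CellTiter-Glo luminescence. IC50 from a 4-parameter fit, normalised to a 0 h plate (maximum inhibition) and DMSO control (minimum inhibition).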

HeLa cells = assay: Assay 1 cell proliferation measurement (CTG, 72 h), HeLa; format: cell-based, human; conditions: Assay 1, 72 h, Cell Titer Glo, read-out: HeLa IC50 [nM] (Cervical cancer)
Outline: as §1

human full length PDE3A = human full length PDE3A (Homo sapiens (Human), UniProt Q14432); assay: Assay 4 PDE3A enzyme inhibition (3H-cAMP SPA); format: biochemical; conditions: Sf9 cell extract
Outline: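 Hydrolysis of [8-3H]cAMP by Sf9-expressed full-length PDE3A was measured by scintillation proximity, with enzyme diluted to keep kinetics linear and substrate consumption below 70%. Incubation ran 60 min at room temperature at pH 7.5.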

human full length PDE3B = human full length PDE3B (Homo sapiens (Human), UniProt Q13370); assay: Assay 5 PDE3B enzyme inhibition (3H-cAMP SPA); format: biochemical; conditions: Sf9 cell extract
Outline: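 Sf9 cell extract expressing human full-length PDE3B, diluted for linear kinetics (<70% substrate use), in 50 mM Tris/HCl pH 7.5, 8.3 mM MgCl2, 1.7 mM EDTA. [8-3H]cAMP substrate, 60 min at room temperature; stopped with yttrium SPA beads, scintillation counting. IC50 from sigmoidal activity vs log concentration curves.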

Chain of human full length PDE3B (Q13370 whole entry): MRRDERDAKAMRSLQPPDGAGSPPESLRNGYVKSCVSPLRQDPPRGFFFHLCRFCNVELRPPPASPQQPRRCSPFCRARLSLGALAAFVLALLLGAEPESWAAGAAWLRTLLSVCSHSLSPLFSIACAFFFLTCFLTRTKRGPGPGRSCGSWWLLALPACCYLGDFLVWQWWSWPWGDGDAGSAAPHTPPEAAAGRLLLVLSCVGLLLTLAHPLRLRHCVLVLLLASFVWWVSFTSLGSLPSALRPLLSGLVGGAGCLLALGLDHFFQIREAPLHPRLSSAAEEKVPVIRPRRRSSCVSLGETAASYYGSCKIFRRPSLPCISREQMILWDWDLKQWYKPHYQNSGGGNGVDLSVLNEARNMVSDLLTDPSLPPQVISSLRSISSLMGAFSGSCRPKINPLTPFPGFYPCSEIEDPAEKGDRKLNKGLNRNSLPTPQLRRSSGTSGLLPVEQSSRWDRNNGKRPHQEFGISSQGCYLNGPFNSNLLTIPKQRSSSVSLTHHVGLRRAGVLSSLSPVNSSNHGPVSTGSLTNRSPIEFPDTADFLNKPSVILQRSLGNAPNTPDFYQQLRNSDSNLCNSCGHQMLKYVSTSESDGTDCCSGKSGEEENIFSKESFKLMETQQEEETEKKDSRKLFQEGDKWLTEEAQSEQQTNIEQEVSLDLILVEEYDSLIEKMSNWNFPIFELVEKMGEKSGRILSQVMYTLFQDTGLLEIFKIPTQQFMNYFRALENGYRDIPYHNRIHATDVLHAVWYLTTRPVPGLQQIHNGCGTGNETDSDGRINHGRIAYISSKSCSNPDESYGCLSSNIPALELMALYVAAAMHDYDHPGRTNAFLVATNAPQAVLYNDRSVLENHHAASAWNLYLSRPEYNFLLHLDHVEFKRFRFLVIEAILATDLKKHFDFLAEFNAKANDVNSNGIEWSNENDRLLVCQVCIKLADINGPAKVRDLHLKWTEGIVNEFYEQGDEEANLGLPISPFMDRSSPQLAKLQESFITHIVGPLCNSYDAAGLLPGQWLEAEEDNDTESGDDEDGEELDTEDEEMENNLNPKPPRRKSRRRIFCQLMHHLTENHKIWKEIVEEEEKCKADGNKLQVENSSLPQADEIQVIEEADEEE
Chain of human full length PDE3A (Q14432 whole entry): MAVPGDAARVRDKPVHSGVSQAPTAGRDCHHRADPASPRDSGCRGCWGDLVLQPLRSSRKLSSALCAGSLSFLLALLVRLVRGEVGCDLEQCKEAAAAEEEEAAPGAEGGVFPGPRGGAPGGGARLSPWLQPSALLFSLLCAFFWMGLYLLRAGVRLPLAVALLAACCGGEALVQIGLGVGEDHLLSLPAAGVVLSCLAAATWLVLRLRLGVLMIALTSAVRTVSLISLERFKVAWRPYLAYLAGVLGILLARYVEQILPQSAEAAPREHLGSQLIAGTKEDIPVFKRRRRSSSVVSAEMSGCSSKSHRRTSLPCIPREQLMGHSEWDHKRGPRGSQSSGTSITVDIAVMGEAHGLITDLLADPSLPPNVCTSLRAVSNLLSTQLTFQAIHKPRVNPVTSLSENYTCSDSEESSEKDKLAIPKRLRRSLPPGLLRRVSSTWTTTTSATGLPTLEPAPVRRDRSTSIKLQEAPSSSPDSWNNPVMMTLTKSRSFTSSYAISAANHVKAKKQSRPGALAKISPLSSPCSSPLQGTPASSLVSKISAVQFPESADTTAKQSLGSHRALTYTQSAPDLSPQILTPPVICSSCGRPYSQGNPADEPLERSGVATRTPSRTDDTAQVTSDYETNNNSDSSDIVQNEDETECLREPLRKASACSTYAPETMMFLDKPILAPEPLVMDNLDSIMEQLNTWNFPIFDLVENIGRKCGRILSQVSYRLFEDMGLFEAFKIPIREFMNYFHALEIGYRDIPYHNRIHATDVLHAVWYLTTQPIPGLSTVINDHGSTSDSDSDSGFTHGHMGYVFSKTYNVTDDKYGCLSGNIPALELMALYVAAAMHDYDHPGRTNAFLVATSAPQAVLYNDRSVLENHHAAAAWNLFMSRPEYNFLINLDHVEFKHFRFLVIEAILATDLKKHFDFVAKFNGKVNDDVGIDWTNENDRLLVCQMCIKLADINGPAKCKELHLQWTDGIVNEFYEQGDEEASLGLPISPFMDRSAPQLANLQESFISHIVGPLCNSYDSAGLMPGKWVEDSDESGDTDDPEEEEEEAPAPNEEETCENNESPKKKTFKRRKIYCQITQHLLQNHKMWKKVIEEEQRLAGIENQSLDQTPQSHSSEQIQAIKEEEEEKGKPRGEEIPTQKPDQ

| IC50 (SK-MEL-3 cells) | IC50 (HeLa cells) | IC50 (human full length PDE3A) | IC50 (human full length PDE3B) | IC50 (SK-MEL-3 cells; Homo sapiens, SK-MEL3) | IC50 (HeLa cells; Homo sapiens, HeLa) | Structure (SMILES) |
| --- | --- | --- | --- | --- | --- | --- |
| 7 nM | 5 nM | 110 nM | 140 nM |  |  | C[C@H]1C[C@H](C)N1c1ccc(C2=NNC(=O)OC2)cc1C(F)(F)F (relative stereo) [Example 208, (cis or trans)-5-{4-[2,4-Dimethylazetidin-1-yl]-3-(trifluoromethyl)phenyl}-3,6-dihydro-2H-1,3,4-oxadiazin-2-one] |
|  |  | 29 nM | 54 nM | 2 nM | 2 nM | O=C1NN=C(c2ccc(N[C@H]3CC[C@H](O)CC3)c(C(F)(F)F)c2)CO1 [Example 211, (trans)-5-[4-{[4-Hydroxycyclohexyl]amino}-3-(trifluoromethyl)phenyl]-3,6-dihydro-2H-1,3,4-oxadiazin-2-one] |
|  |  | 32 nM | 27 nM | 1 nM | 0.3 nM | O=C1NN=C(c2ccc(NC3CCCC3)c(C(F)(F)F)c2)CO1 [Example 136, 5-[4-(Cyclopentylamino)-3-(trifluoromethyl)phenyl]-3,6-dihydro-2H-1,3,4-oxadiazin-2-one] |
|  |  | 75 nM | 120 nM | 9 nM | 6 nM | O=C1NN=C(c2ccc(N3CC[C@@H](O)C3)c(C(F)(F)F)c2)CO1 [Example 257, 5-{4-[(3R)-3-Hydroxypyrrolidin-1-yl]-3-(trifluoromethyl)phenyl}-3,6-dihydro-2H-1,3,4-oxadiazin-2-one] |
|  |  | 440 nM | 650 nM | 68 nM | 55 nM | O=C1NN=C(c2ccc(-c3ccc(C(F)(F)F)s3)c(C(F)(F)F)c2)CO1 [Example 156, 5-{3-(Trifluoromethyl)-4-[5-(trifluoromethyl)thiophen-2-yl]phenyl}-3,6-dihydro-2H-1,3,4-oxadiazin-2-one] |
|  |  | 53 nM | 123 nM | 5 nM | 4 nM | O=C1NN=C(c2ccc(NC3CCOCC3)c(C(F)(F)F)c2)CO1 [Example 205, 5-{4-[(Oxan-4-yl)amino]-3-(trifluoromethyl)phenyl}-3,6-dihydro-2H-1,3,4-oxadiazin-2-one] |
|  |  | 260 nM | 210 nM | 19800 nM | 81 nM | Cn1c(C#N)ccc1-c1ccc(C2=NNC(=O)OC2)cc1C(F)(F)F [Example 50, 1-Methyl-5-[4-(2-oxo-3,6-dihydro-2H-1,3,4-oxadiazin-5-yl)-2-(trifluoromethyl)phenyl]-1H-pyrrole-2-carbonitrile] |
|  |  | 34 nM | 87 nM | 6 nM | 2 nM | Nc1ccc(-c2ccc(C3=NNC(=O)OC3)cc2F)cc1 [Example 80, 5-(4′-Amino-2-fluorobiphenyl-4-yl)-3,6-dihydro-2H-1,3,4-oxadiazin-2-one] |
|  |  | 76 nM | 220 nM | > 100 nM | > 100 nM | NC1CCC(Nc2ccc(C3=NNC(=O)OC3)cc2C(F)(F)F)CC1 (mixture of isomers) [Example 320, 5-[4-{[4-aminocyclohexyl]amino}-3-(trifluoromethyl)phenyl]-3,6-dihydro-2H-1,3,4-oxadiazin-2-one (mixture of stereoisomers)] |
|  |  | 275 nM | 533 nM | 7 nM | 7 nM | O=C1NN=C(c2ccc(NC[C@H](O)C(F)(F)F)c(C(F)(F)F)c2)CO1 [Example 209, 5-[4-{[3,3,3-Trifluoro-(2S)-hydroxypropyl]amino}-3-(trifluoromethyl)phenyl]-3,6-dihydro-2H-1,3,4-oxadiazin-2-one] |
|  |  | 34 nM | 110 nM | 3 nM | 1 nM | O=C1NN=C(c2ccc(NC[C@@H]3CCCO3)c(C(F)(F)F)c2)CO1 [Example 259, 5-[4-({[(2S)-Oxolan-2-yl]methyl}amino)-3-(trifluoromethyl)phenyl]-3,6-dihydro-2H-1,3,4-oxadiazin-2-one] |
|  |  | 84 nM | 65 nM | 49 nM | 19 nM | Cc1cc(C2=NNC(=O)OC2)ccc1-c1cn[nH]c1 [Example 11, 5-[3-Methyl-4-(1H-pyrazol-4-yl)phenyl]-3,6-dihydro-2H-1,3,4-oxadiazin-2-one] |
|  |  | 200 nM | 100 nM | 41 nM | 15 nM | CC1OC(=O)NN=C1c1ccc(N2CCOCC2)cc1 (racemic) [Example 20, (rac)-6-Methyl-5-[4-(morpholin-4-yl)phenyl]-3,6-dihydro-2H-1,3,4-oxadiazin-2-one] |
|  |  | 240 nM | 250 nM | 5 nM | 2 nM | O=C1NN=C(c2ccc(C3=CCCC3)c(C(F)(F)F)c2)CO1 [Example 150, 5-[4-(Cyclopent-1-en-1-yl)-3-(trifluoromethyl)phenyl]-3,6-dihydro-2H-1,3,4-oxadiazin-2-one] |
|  |  | 970 nM | 770 nM | > 100 nM | > 100 nM | Cc1noc(C)c1-c1ccc(C2=NNC(=O)OC2)cc1C(F)(F)F [Example 129, 5-[4-(3,5-Dimethyl-1,2-oxazol-4-yl)-3-(trifluoromethyl)phenyl]-3,6-dihydro-2H-1,3,4-oxadiazin-2-one] |
|  |  | 27 nM | 17 nM | 34 nM | 21 nM | Cc1n[nH]cc1-c1ccc(C2=NNC(=O)OC2)cc1C(F)(F)F [Example 46, 5-[4-(3-Methyl-1H-pyrazol-4-yl)-3-(trifluoromethyl)phenyl]-3,6-dihydro-2H-1,3,4-oxadiazin-2-one] |
|  |  | 170 nM | 250 nM | 64 nM | 55 nM | Cc1ccc(-c2ccc(C3=NNC(=O)OC3)cc2C(F)(F)F)cc1N [Example 42, 5-[3′-Amino-4′-methyl-2-(trifluoromethyl)biphenyl-4-yl]-3,6-dihydro-2H-1,3,4-oxadiazin-2-one] |
|  |  | 110 nM | 140 nM | 5 nM | 2 nM | O=C1NN=C(c2ccc(-c3ccccc3)c(F)c2)CO1 [Example 89, 5-(2-Fluorobiphenyl-4-yl)-3,6-dihydro-2H-1,3,4-oxadiazin-2-one] |
|  |  | 72 nM | 75 nM | 6 nM | 4 nM | Nc1ccc(-c2ccc(C3=NNC(=O)OC3)cc2C(F)(F)F)cc1F [Example 39, 5-[4′-Amino-3′-fluoro-2-(trifluoromethyl)biphenyl-4-yl]-3,6-dihydro-2H-1,3,4-oxadiazin-2-one] |
|  |  | 300 nM | 160 nM | > 100 nM | 46 nM | Cc1cc(C2=NNC(=O)OC2)ccc1-c1ccnn1C [Example 29, 5-[3-Methyl-4-(1-methyl-1H-pyrazol-5-yl)phenyl]-3,6-dihydro-2H-1,3,4-oxadiazin-2-one] |
|  |  | > 1000 nM | > 1000 nM | 49 nM | 30 nM | O=C1NN=C(c2ccc(-c3ccc(C(F)(F)F)cc3)c(C(F)(F)F)c2)CO1 [Example 51, 5-[2,4′-Bis(trifluoromethyl)biphenyl-4-yl]-3,6-dihydro-2H-1,3,4-oxadiazin-2-one] |
|  |  | 380 nM | 270 nM | > 100 nM | 45 nM | N#Cc1cc(C2=NNC(=O)OC2)cc(Cl)c1N1CCOCC1 [Example 23, 3-Chloro-2-(morpholin-4-yl)-5-(2-oxo-3,6-dihydro-2H-1,3,4-oxadiazin-5-yl)benzonitrile] |
|  |  | 27 nM | 25 nM | 3 nM | 1 nM | O=C1NN=C(c2ccc(C3CCCOC3)c(C(F)(F)F)c2)CO1 (racemic) [Example 271, (rac)-5-{4-[Oxan-3-yl]-3-(trifluoromethyl)phenyl}-3,6-dihydro-2H-1,3,4-oxadiazin-2-one] |
|  |  | 300 nM | 200 nM | 8 nM | 6 nM | CC(C)=Cc1ccc(C2=NNC(=O)OC2)cc1OC(F)(F)F [Example 164, 5-[4-(2-Methylprop-1-en-1-yl)-3-(trifluoromethoxy)phenyl]-3,6-dihydro-2H-1,3,4-oxadiazin-2-one] |
|  |  | 47 nM | 63 nM | 5 nM | 3 nM | CCNc1ccc(C2=NNC(=O)OC2)cc1C(F)(F)F [Example 67, 5-[4-(Ethylamino)-3-(trifluoromethyl)phenyl]-3,6-dihydro-2H-1,3,4-oxadiazin-2-one] |
|  |  | 66 nM | 57 nM | 6 nM | 5 nM | Cc1cc(-c2ccc(C3=NNC(=O)O[C@H]3C)cc2C(F)(F)F)ccn1 [Example 184, (6S)-6-Methyl-5-[4-(2-methylpyridin-4-yl)-3-(trifluoromethyl)phenyl]-3,6-dihydro-2H-1,3,4-oxadiazin-2-one] |
|  |  | 110 nM | 250 nM | 6 nM | 2 nM | Cc1ccc(-c2ccc(C3=NNC(=O)OC3)cc2F)cc1 [Example 88, 5-(2-Fluoro-4′-methylbiphenyl-4-yl)-3,6-dihydro-2H-1,3,4-oxadiazin-2-one] |
